In assay [1] the target is T1, h-NAAA (Homo sapiens (Human), UniProt Q02083). The assay can be described thus: Inhibitors recovery assay (LC/MS). The class given is biochemical. As to conditions: LC/MS recovery study, 1 μM compound, 2 h at 37° C. with h-NAAA. The procedure: FIG. 2 is a histogram resulting from the inhibitors recovering assay: ordinate: % recovery of compounds after h-NAAA incubation; ARN16186 and covalent inhibitor ARN15393 were incubated with NAAA (right bars) or buffer alone (left bars) and quantified in supernatant after protein precipitation;
(§1) h-NAAA was produced and purified from h-NAAA overexpressing HEK293 cell line as described (ACS Med Chem Lett 2012, 3, 422-426). The purified enzyme was incubated in activation buffer [100 mM Sodium Phosphate/Sodium Citrate Buffer, 3 mM DL-dithiothreitol (DTT), 0.1% Triton X100, pH 4.5] for 3 h at 37° C. and the enzyme activation was checked by SDS-PAGE and Coomassie blue staining.
h-NAAA (25 μL of a 2 μM solution) was incubated with ARN16186 or covalent inhibitor ARN15393 at the concentration of 1 μM in activation buffer, 2 h at 37° C. Samples were next precipitated with ten volumes of acetonitrile and centrifuged 10 min at 12000×g. The supernatants were recovered and analysed by LCMS/MS for the presence of the added compound. No-protein control samples (buffer only) were used as 100% recovery reference. Compound was detected and quantified using a Waters ACQUITY UPLC/MS TQD system consisting of a TQD (Triple Quadrupole Detector) mass spectrometer, equipped with an electrospray ionization interface. […] Compound was quantified monitoring its MRM peak area. […]
Target sequence in this assay (Q02083 29-125): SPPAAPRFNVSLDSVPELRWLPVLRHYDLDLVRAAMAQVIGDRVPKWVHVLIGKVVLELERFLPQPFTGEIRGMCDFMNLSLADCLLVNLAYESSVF
Target sequence in this assay (Q02083 126-359): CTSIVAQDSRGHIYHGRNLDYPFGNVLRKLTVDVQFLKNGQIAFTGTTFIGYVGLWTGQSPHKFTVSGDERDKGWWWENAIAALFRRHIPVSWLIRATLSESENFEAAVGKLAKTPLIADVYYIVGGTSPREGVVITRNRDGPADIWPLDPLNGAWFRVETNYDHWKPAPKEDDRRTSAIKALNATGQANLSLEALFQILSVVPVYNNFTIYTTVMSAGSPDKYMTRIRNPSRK

For assay [2], the target named is h-AC (Acid Ceramidase) (Homo sapiens (Human), UniProt Q13510). The assay can be described thus: Fluorogenic h-AC assay. The class given is biochemical. The settings on record: pH 4.5, 10 min pre-incubation. The method, then:
(§2) Human recombinant proteins were obtained from HEK-293 stable overexpressing NAAA, AC and FAAH cell lines, respectively. Cells were grown in Dulbecco's modified Eagle medium (DMEM) containing 10% FBS, 1% penicillin/streptomycin, 1% glutamine and 500 μg/mL G418. To obtain membrane preparation cells were scraped off with cold phosphate-buffered saline (PBS) and collected by centrifugation (300×g, 7 min, 4° C.). Cell pellets were stored at −80° C. until protein preparation.
(§3) Preparation of enzyme-enriched lysate (h-NAAA and hAC). HEK-293 cells stably transfected with the human NAAA or human AC coding sequences were used as enzyme source. […] The suspension was finally ultracentrifuged at 105,000×g for 1 h at 4° C., supernatants were collected, protein concentration was measured and samples aliquoted and stored at −80° C. until use.
The assay was run in 96-well microplates (Black OptiPlate™-96 F; PerkinElmer, Massachusetts, USA) in a total reaction volume of 100 μL. h-AC protein preparation (2.0 μg) was pre-incubated for 10 min with various concentrations of test compounds or vehicle control (DMSO 5%) in 25 mM sodium acetate buffer (pH 4.5). […] Fluorescence was measured with EnVision 2014 Multilabel Reader (PerkinElmer, Massachusetts, USA) using an excitation wavelength of 355 nm and emission 460 nm. […]

Assay [3] concerns the target T1, h-NAAA. Nature of the assay: Fluorogenic h-NAAA assay. The class given is biochemical. The settings on record: PAMCA substrate 2.0 μM, pH 4.5, 30 min pre-incubation. The procedure: as §2, §3
The assay was run in 96-well microplates (Black OptiPlate™-96 F; PerkinElmer, Massachusetts, USA), in a total reaction volume of 200 μL. h-NAAA protein preparation (4.0 μg) was pre-incubated for 30 min with various concentrations of test compounds or vehicle control (DMSO 5%) in 100 mM citrate/phosphate buffer (pH 4.5) containing 3.0 mM DTT, 0.1% NP40 0.1%, 0.05% BSA, 150 mM NaCl. […] Fluorescence was measured with EnVision 2014 Multilabel Reader (PerkinElmer, Massachusetts, USA) using an excitation wavelength of 355 nm and emission 460 nm. […]
Target sequence in this assay (Q02083 29-359): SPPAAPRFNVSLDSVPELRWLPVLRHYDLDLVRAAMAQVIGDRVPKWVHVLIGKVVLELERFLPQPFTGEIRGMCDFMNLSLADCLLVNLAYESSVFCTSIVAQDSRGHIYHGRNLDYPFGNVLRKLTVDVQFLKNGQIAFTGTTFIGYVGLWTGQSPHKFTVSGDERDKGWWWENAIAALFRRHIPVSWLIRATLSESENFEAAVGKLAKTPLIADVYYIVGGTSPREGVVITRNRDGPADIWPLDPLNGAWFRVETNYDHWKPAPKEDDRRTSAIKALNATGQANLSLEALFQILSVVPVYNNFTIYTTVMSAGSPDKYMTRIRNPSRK

Assay [4] has as its target T1, h-NAAA. Nature of the assay: Competitive Activity Based Protein Profiling (ABPP). The class given is biochemical. As to conditions: 20 μM, lysosomal extracts of h-NAAA overexpressing HEK293 cells, probe ARN14686. The method, then:
FIG. 1 is a picture showing the SDS-PAGE analysis resulting from the Competitive Activity Based Protein Profiling (ABPP): in summary, lysosomal extracts of h-NAAA overexpressing HEK293 cells were incubated with a vehicle (2% DMSO), ARN15393 (covalent h-NAAA inhibitor) or ARN16186, for 2 h before addition of probe ARN14686; a rhodamine fluorophore was inserted by a click chemistry. The arrow indicates NAAA;
as §1
For competitive ABPP, 50 μL of lysosomal enrichment (0.5 mg/mL) from of h-NAAA-overexpressing HEK293 cell line were incubated 2 h at 37° C. with ARN16186 or covalent inhibitor ARN15393^(*^) at a final concentration of 20 μM (DMSO 2%). At the end of this pre-incubation time, the activity based probe undec-10-ynyl-N—[(S)-2-oxoazetidin-3-yl]carbamate (ARN14686) (ACS Chem. Biol. 2015, 10, 2057-2064) was added at 20 μM for 15 min or for 3.5 h at 37° C. […] Samples (10 μL) were analysed by SDS-PAGE and gel florescence was scanned at 532 nm wavelength (Fuji Film FLA-9000 instrument).
Target sequence in this assay (Q02083 29-359): as above

Assay [5] deals with h-FAAH1 (Fatty Acid Amide Hydrolase) (Homo sapiens (Human), UniProt O00519). Nature of the assay: Fluorogenic h-FAAH assay. The class given is biochemical. As to conditions: AMC arachidonoyl amide 800 nM, pH 7.4, 50 min pre-incubation. The method, then: as §2
Chain of h-FAAH1 (Fatty Acid Amide Hydrolase) (O00519 whole entry): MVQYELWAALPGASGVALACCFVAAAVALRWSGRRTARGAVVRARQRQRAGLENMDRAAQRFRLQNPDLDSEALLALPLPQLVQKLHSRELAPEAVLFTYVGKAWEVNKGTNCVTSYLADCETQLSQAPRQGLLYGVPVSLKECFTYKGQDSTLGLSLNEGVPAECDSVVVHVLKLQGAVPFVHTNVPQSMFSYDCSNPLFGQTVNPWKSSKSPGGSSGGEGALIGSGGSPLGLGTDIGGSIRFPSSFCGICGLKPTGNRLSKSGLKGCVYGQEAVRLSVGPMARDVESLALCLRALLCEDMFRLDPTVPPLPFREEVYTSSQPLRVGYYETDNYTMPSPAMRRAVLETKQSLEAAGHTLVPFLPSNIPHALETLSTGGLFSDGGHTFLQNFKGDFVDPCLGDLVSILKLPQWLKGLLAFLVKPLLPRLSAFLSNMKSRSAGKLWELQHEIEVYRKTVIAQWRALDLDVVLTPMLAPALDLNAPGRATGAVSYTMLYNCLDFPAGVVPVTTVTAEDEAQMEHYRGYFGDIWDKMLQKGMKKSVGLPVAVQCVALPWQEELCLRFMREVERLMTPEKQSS
Preparation of membrane-enriched lysate (h-FAAH). […]
The fluorescent assay to measure FAAH activity was performed in 96 wells black plates: 2.5 μg of human FAAH-1 membrane preparation were pre-incubated for 50 min at 37° C., in 190 μL of assay buffer (50 mM TrisHCl pH 7.4, 0.05% Fatty acid-free BSA) with 5 μL of inhibitor or 5 μL DMSO to measure FAAH total activity. […] The reaction was carried out for 45 minutes at 37° C. and fluorescence was measured with EnVision 2014 Multilabel Reader (PerkinElmer, Massachusetts, USA) (excitation wavelength 355 nm/emission wavelength 460 nm). The concentration causing half-maximal inhibition (IC50) was determined by nonlinear regression analysis of the Log [concentration]/response curves generated with mean replicate values using a four-parameter Hill equation curve fitting with GraphPad Prism 5 (GraphPad Software Inc., CA, USA).

For assay [6], the target named is T1, h-NAAA. The assay can be described thus: Dialysis test (reversibility of inhibition). The class given is biochemical.
Target sequence in this assay (Q02083 29-359): as the sequence (Q02083 29-359) above
In assay [7] the test system is sciatic nerve chronic constriction injury (CCI) model of persistent hyperalgesia and allodynia. The assay can be described thus: Chronic Constriction Injury (CCI) of the sciatic nerve. The class given is in vivo. As to conditions: mice. The procedure:
Sciatic nerve ligations were performed according to Bennett and Xie (Pain. 1988, 33, 87-107). Adult male CD1 mice were anesthetized with 2-3% isoflurane, and the left sciatic nerve was exposed at mid-thigh level through a small incision and tied at two distinct sites (spaced at a 2-mm interval) with a silk thread. The wound was closed with a single muscle suture and skin clips, and dusted with streptomycin. In sham-operated animals, the nerve was exposed but not tied. All experiments were performed in a quiet room, and experimenters were blinded to the treatment protocol at the time of the test.
Heat hyperalgesia was assessed by the method of Hargreaves et al. (Pain. 1988, 32, 77-88) measuring the latency to withdraw the hind paw from a focused beam of radiant heat (thermal intensity: infrared 3.0) applied to the plantar surface in a plantar test apparatus (Ugo Basile). The cutoff time was set at 30 s.
Tactile allodynia (dynamic plantar esthesiometer; Ugo Basile) was assessed as described by La Rana et al. (Neuropharmacology 2008, 54,521-529) using the Von Frey dynamic plantar aesthesiometer (DPA). Animals were placed individually in a small testing arena (20 cm×18.5 cm×13 cm) with a wire mesh floor for 5 min. The DPA device was positioned beneath the animal, so that the filament was directly under the plantar surface of the paw to be tested. […] The DPA automatically records the force at which the paw is withdrawn and the withdrawal latency (latency and maximum force are directly related, because the device progressively increases force until withdrawal occurs). Mechanical hyperalgesia was recorded according to the Randall Sellito measurement.
ARN16186 was then studied for its ability to alleviate established chronic pain condition (therapeutic effect). The compound was tested in the sciatic nerve chronic constriction injury (CCI) model of persistent hyperalgesia and allodynia in mice, a model that has both inflammatory and neuropathic pain components. ARN16186 (0.3, 1.0, 3.0 and 10 mg kg^−1, p.o.) was administered on day 7 and day 14, after left sciatic nerve ligation, and pain readouts were measured 2 h after dosing.

The mark [8] stands for this setting: single administration 0.3, 1.0, 3.0 and 10 mg kg^−1 p.o., day 7 and day 14 after ligation, 2 h after dosing, dose-dependent.

Usually IC50 stands for the concentration that inhibits the measured activity by half. The low end stands for greater potency in that assay, the high end for weaker potency in that assay.

Structures are written as SMILES. A value given as a limit tells only on which side of the number the result lay.

Chain of h-AC (Acid Ceramidase) (Q13510 22-395): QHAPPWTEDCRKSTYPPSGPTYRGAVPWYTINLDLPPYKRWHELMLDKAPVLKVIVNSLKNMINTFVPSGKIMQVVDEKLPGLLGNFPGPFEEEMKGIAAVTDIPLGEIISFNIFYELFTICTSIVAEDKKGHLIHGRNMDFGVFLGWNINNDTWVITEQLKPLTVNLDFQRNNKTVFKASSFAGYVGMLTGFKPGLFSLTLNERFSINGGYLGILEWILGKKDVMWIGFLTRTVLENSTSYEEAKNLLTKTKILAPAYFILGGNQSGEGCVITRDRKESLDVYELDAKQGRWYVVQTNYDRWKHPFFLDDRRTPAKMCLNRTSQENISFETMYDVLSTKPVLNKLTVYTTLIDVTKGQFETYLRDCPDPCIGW

`CCCCc1ccc(OC2CC3CCC(C2)N3S(=O)(=O)c2c(C)n[nH]c2C)cc1` (stereo not drawn) [ARN16186, (endo)-3-(4-butylphenoxy)-8-[(3,5-dimethyl-1H-pyrazol-4-yl)sulfonyl]-8-azabicyclo[3.2.1.]octane]: the mechanism of inhibition entry in assay [1] and in assay [4] was “non-covalent” in each case. Further, the IC50 in assay [2] was > 30 µM; in assay [3] it was 0.023 ± 0.004 µM; in assay [5] it was > 30 µM. Moreover, in assay [6] (after 24 h), the “recovery in a dialysis test” value was “ca. 30%”. For the same compound, the “mode of inhibition (dialysis test)” value in assay [6] (after 24 h dialysis) was “partially reversible”. The “dose with full effect on hyperalgesia and allodynia” value in assay [7] (p.o., single administration, readout 2 h after dosing) is 10 mg/kg. Further, in assay [7] (setting [8]), the mechanical hyperalgesia result was “reduce significantly”. Moreover, in assay [7] (setting [8]), the tactile allodynia result is on record as “reduce significantly”. In assay [7] (setting [8]), the thermal hyperalgesia entry is on record as “reduce significantly”.
